Columns and labels:
Eimeria tenella [1] = assay: Anticoccidial activity as percentage reduction in oocyst production in birds infected with Eimeria tenella after 100 ppm dose; Range is 50-79%; type: functional
Eimeria acervulina = assay: Anticoccidial activity as percentage reduction in oocyst production in birds infected with Eimeria acervulina after 100 ppm dose; type: functional
Eimeria tenella [2] = assay: Anticoccidial activity as percentage reduction in oocyst production in birds infected with Eimeria tenella after 100 ppm dose; type: functional
[3] = biological target: cGMP-dependent protein kinase (Eimeria tenella, UniProt Q8MMZ8); assay: Inhibitory activity against cGMP-dependent protein kinase from Eimeria tenella
cGMP-dependent protein kinase, sequence (Q8MMZ8 whole entry): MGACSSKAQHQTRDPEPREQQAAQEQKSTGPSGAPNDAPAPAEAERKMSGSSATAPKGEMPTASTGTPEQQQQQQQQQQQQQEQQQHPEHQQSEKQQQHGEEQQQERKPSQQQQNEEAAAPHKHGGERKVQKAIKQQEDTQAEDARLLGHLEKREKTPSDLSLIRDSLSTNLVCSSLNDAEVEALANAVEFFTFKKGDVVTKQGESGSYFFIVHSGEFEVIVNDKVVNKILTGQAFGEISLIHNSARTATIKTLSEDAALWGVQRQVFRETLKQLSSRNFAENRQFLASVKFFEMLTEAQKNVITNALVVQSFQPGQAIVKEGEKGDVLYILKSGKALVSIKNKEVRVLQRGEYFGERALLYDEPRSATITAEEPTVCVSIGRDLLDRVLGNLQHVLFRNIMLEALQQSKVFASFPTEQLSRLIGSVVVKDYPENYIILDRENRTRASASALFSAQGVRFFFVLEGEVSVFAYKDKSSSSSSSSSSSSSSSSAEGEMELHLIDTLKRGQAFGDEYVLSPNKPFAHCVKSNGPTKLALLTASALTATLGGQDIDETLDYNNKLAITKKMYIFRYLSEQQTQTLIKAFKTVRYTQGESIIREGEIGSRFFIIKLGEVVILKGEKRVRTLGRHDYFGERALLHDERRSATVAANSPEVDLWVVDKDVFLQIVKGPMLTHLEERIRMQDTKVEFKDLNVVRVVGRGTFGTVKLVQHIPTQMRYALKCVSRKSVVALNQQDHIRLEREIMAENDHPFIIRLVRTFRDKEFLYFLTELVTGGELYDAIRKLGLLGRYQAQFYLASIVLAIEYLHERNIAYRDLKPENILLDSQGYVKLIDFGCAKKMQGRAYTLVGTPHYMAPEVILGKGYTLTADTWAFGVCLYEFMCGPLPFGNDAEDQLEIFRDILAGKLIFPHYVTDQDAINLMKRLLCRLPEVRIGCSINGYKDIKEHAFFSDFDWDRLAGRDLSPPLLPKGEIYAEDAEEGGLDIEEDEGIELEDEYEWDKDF

| SMILES | IC50 [3] [nM] | Anticoccidial Activity (Eimeria tenella [1]) [%] | Anticoccidial Activity (Eimeria acervulina) [%] | Anticoccidial Activity (Eimeria tenella [2]) [%] |
| --- | --- | --- | --- | --- |
| OCCCN1CCC(c2cc(-c3ccncc3)c(-c3ccc(F)cc3)[nH]2)CC1 | – | 79 | >80 | – |
| OCCN1CCC(c2cc(-c3ccncc3)c(-c3ccc(F)cc3)[nH]2)CC1 | – | – | >80 | >80 |
| CCCN1CCC(c2cc(-c3ccncc3)c(-c3ccc(F)cc3)[nH]2)CC1 | – | – | <50 | <50 |
| CC(O)[C@H](CO)N1CCC(c2cc(-c3ccncc3)c(-c3ccc(F)cc3)[nH]2)CC1 (stereo partly specified) | 0.82 | – | >80 | >80 |
| OCCCCN1CCC(c2cc(-c3ccncc3)c(-c3ccc(F)cc3)[nH]2)CC1 | 1.34 | – | >80 | >80 |
| OC(COCc1ccco1)CN1CCC(c2cc(-c3ccncc3)c(-c3ccc(F)cc3)[nH]2)CC1 (stereo unspecified) | 0.82 | – | <50 | <50 |
| CCC(O)CN1CCC(c2cc(-c3ccncc3)c(-c3ccc(F)cc3)[nH]2)CC1 (stereo unspecified) | 0.71 | – | >80 | >80 |
| CCOCC(O)CN1CCC(c2cc(-c3ccncc3)c(-c3ccc(F)cc3)[nH]2)CC1 (stereo unspecified) | 0.59 | 79 | >80 | – |
| CCCCC(O)CN1CCC(c2cc(-c3ccncc3)c(-c3ccc(F)cc3)[nH]2)CC1 (stereo unspecified) | 0.41 | – | <50 | <50 |
| CC(O)C(O)CN1CCC(c2cc(-c3ccncc3)c(-c3ccc(F)cc3)[nH]2)CC1 (stereo unspecified) | 0.4 | – | >80 | >80 |
| OCCCCCN1CCC(c2cc(-c3ccncc3)c(-c3ccc(F)cc3)[nH]2)CC1 | 1.46 | – | >80 | >80 |
| CC(C)(C)OCC(O)CN1CCC(c2cc(-c3ccncc3)c(-c3ccc(F)cc3)[nH]2)CC1 (stereo unspecified) | 0.98 | – | <50 | <50 |
| OC(COCc1ccccc1)CN1CCC(c2cc(-c3ccncc3)c(-c3ccc(F)cc3)[nH]2)CC1 (stereo unspecified) | 0.47 | – | <50 | <50 |
| COC[C@@H](O)CN1CCC(c2cc(-c3ccncc3)c(-c3ccc(F)cc3)[nH]2)CC1 | 0.56 | – | >80 | >80 |
| CC(O)[C@@H](CO)N1CCC(c2cc(-c3ccncc3)c(-c3ccc(F)cc3)[nH]2)CC1 (stereo partly specified) | 1.01 | – | >80 | >80 |
| C[C@@H](O)CN1CCC(c2cc(-c3ccncc3)c(-c3ccc(F)cc3)[nH]2)CC1 | 1.2 | – | >80 | >80 |
| O[C@H]1CNC(CN2CCC(c3cc(-c4ccncc4)c(-c4ccc(F)cc4)[nH]3)CC2)C1 (stereo partly specified) | 0.16 | – | – | – |
| CC(O)[C@@H](C)N1CCC(c2cc(-c3ccncc3)c(-c3ccc(F)cc3)[nH]2)CC1 (mixture of isomers) | 0.94 | – | >80 | >80 |
| OCC(O)CN1CCC(c2cc(-c3ccncc3)c(-c3ccc(F)cc3)[nH]2)CC1 (stereo in doubt; 5e) | 1.27 | – | – | – |

The remaining compounds from weak to strong by IC50 [3], led by results:

| IC50 [3] [nM] | SMILES | Anticoccidial Activity (Eimeria tenella [1]) [%] | Anticoccidial Activity (Eimeria acervulina) [%] | Anticoccidial Activity (Eimeria tenella [2]) [%] |
| --- | --- | --- | --- | --- |
| 2.2 | CC(=O)N1C[C@H](O)CC1CN1CCC(c2cc(-c3ccncc3)c(-c3ccc(F)cc3)[nH]2)CC1 (stereo partly specified) | – | – | – |
| 2.08 | CC(=O)OCCN1CCC(c2cc(-c3ccncc3)c(-c3ccc(F)cc3)[nH]2)CC1 | – | <50 | <50 |
| 1.28 | OC(Cc1ccccc1)CN1CCC(c2cc(-c3ccncc3)c(-c3ccc(F)cc3)[nH]2)CC1 (stereo unspecified) | – | >80 | <50 |
| 1.01 | CCCCCCC(O)CN1CCC(c2cc(-c3ccncc3)c(-c3ccc(F)cc3)[nH]2)CC1 (stereo unspecified) | – | <50 | <50 |
| 0.86 | CC(O)[C@H](C)N1CCC(c2cc(-c3ccncc3)c(-c3ccc(F)cc3)[nH]2)CC1 (stereo partly specified) | – | >80 | >80 |
| 0.8 | C=CCOCC(O)CN1CCC(c2cc(-c3ccncc3)c(-c3ccc(F)cc3)[nH]2)CC1 (stereo unspecified) | – | <50 | <50 |
| 0.71 | OCC(O)CN1CCC(c2cc(-c3ccncc3)c(-c3ccc(F)cc3)[nH]2)CC1 (stereo in doubt; 5b) | – | >80 | – |
| 0.69 | COC[C@H](O)CN1CCC(c2cc(-c3ccncc3)c(-c3ccc(F)cc3)[nH]2)CC1 | – | >80 | >80 |
| 0.69 | CC(C)OCC(O)CN1CCC(c2cc(-c3ccncc3)c(-c3ccc(F)cc3)[nH]2)CC1 (stereo unspecified) | – | <50 | <50 |
| 0.66 | OC(COc1ccccc1)CN1CCC(c2cc(-c3ccncc3)c(-c3ccc(F)cc3)[nH]2)CC1 (stereo unspecified) | – | <50 | <50 |
| 0.51 | OCC(O)CN1CCC(c2cc(-c3ccncc3)c(-c3ccc(F)cc3)[nH]2)CC1 (stereo in doubt; 5a) | – | <50 | >80 |
| 0.48 | C[C@H](O)CN1CCC(c2cc(-c3ccncc3)c(-c3ccc(F)cc3)[nH]2)CC1 | – | >80 | >80 |
| 0.38 | CCCC(O)CN1CCC(c2cc(-c3ccncc3)c(-c3ccc(F)cc3)[nH]2)CC1 (stereo unspecified) | – | <50 | <50 |

— ChEMBL document CHEMBL1142855, “Hydroxylated N-alkyl-4-piperidinyl-2,3-diarylpyrrole derivatives as potent broad-spectrum anticoccidial agents” (Bioorg Med Chem Lett, 2005)
